Laboratory results reported in patent US20220257540A1, “COMPOSITIONS AND METHODS FOR TREATMENT OF HEPATITIS B VIRUS INFECTION” (ANHUI RONGHANG BIOTECH DEVELOPMENT CO., LTD., priority 2019, published 2022).
Like-named read-outs stand apart in the source and are kept apart here.

Columns and labels:
[1] = system: HBV GT C; experiment: In vitro anti-HBV efficacy in HBV-infected PXB-cells; assay type: cell-based; conditions: for Extracellular HBeAg: Day 27, 10 fold diluted sample
Description: Materials & Methods: PXB-cells was infected with HBV GT C. […] The anti-HBV therapeutic efficacy was measured by the analysis of extracellular HBV DNA, HBsAg, HBeAg, h-Alb, and intracellular HBV DNA/cceDNA levels. Entecavir was used as the positive control. The hepatocytes isolated from 3 mice were combined to seed culture plate. The cell density of mixed cell was 7.37×10^6 cells/mL. PXB-cells® are the fresh hepatocytes which are isolated from PXB-mice. Cells viability after isolation: >80%. Donor Hepatocytes were purchased from Corning, Incorporated (Tewksbury, Mass., USA), Lot: BD195 ([…]). […] Entecavir was purchased from Santa-cruz, Lot: 10914, Concentration: 1 mM. Plates was observed under microscopy and photographed.

[2] = system: HBV-related postnecrotic cirrhosis; conditions: double-blind controlled trial, 100 patients; cited from earlier work
[3] = ingested more than 0.8 mg/kg; cited from earlier work
[4] = cited from earlier work; for Peak blood level (Cmax) / Exposure (area under the curve) / terminal half-life: fasted healthy volunteers; for mean Cmax: healthy adults, capsules orally
[5] = system: liver fibrosis; conditions: rats with carbon tetrachloride induced cirrhosis; cited from earlier work
[6] = system: chronic Hepatitis B; conditions: 1 mg a day orally for 5 days-a-week over 6 months, cited from earlier work

In the case of `COc1cc2c(c(OC)c1OC)-c1ccc(OC)c(=O)cc1[C@@H](NC(C)=O)CC2` [Colchicine, N [5,6,7,9-tetrahydro-1,2,3,10-tetratmethoxy 9-oxobenzo[a]heptalen-7-yl], (S)-acetamide], the “Extracellular HBV DNA” value ([1]; Colchicine 1 nM, Day 27) is reported as 7.06 Log copies/mL, the “Extracellular HBsAg” value ([1]; Colchicine 1 nM, Day 27) is reported as 23.1 IU/mL and the “Intracellular HBV DNA” value ([1]; Colchicine 1 nM, Day 27) is reported as 250511 copies/100 ng DNA. The “Intracellular cccDNA” value ([1]; Colchicine 1 nM, Day 27) was 217 copies/100 ng DNA, the “Extracellular HBeAg” value ([1]; Colchicine 1 nM) was 14.7 C.O.I and the “Extracellular HBV DNA” value ([1]; Colchicine 2 nM, Day 27) was 7.06 Log copies/mL. The “Extracellular HBsAg” value ([1]; Colchicine 2 nM, Day 27) was 23.5 IU/mL, the “Intracellular HBV DNA” value ([1]; Colchicine 2 nM, Day 27) was 235131 copies/100 ng DNA and the “Intracellular cccDNA” value ([1]; Colchicine 2 nM, Day 27) was 207 copies/100 ng DNA. For the same molecule, the “Extracellular HBeAg” value ([1]; Colchicine 2 nM) was 16.2 C.O.I, the “Extracellular HBV DNA” value ([1]; Colchicine 3.9 nM, Day 27) was 7.16 Log copies/mL and the “Extracellular HBsAg” value ([1]; Colchicine 3.9 nM, Day 27) was 26.7 IU/mL. For the same molecule, the “Intracellular HBV DNA” value ([1]; Colchicine 3.9 nM, Day 27) was 282895 copies/100 ng DNA, the “Intracellular cccDNA” value ([1]; Colchicine 3.9 nM, Day 27) was 247 copies/100 ng DNA and the “Extracellular HBeAg” value ([1]; Colchicine 3.9 nM) was 19.2 C.O.I. For the same molecule, the “Extracellular HBV DNA” value ([1]; Colchicine 7.8 nM, Day 27) was 7.06 Log copies/mL, the “Extracellular HBsAg” value ([1]; Colchicine 7.8 nM, Day 27) was 25.5 IU/mL and the “Intracellular HBV DNA” value ([1]; Colchicine 7.8 nM, Day 27) was 270324 copies/100 ng DNA. For the same molecule, the “Intracellular cccDNA” value ([1]; Colchicine 7.8 nM, Day 27) was 227 copies/100 ng DNA, the “Extracellular HBeAg” value ([1]; Colchicine 7.8 nM) was 17.4 C.O.I and the “Extracellular HBV DNA” value ([1]; Colchicine 15.6 nM, Day 27) was 6.86 Log copies/mL. The “Extracellular HBsAg” value ([1]; Colchicine 15.6 nM, Day 27) was 25.2 IU/mL, the “Intracellular HBV DNA” value ([1]; Colchicine 15.6 nM, Day 27) was 256994 copies/100 ng DNA and the “Intracellular cccDNA” value ([1]; Colchicine 15.6 nM, Day 27) was 261 copies/100 ng DNA. The “Extracellular HBeAg” value ([1]; Colchicine 15.6 nM) was 16.3 C.O.I, the “Extracellular HBV DNA” value ([1]; Colchicine 31.3 nM, Day 27) was 6.06 Log copies/mL and the “Extracellular HBsAg” value ([1]; Colchicine 31.3 nM, Day 27) was 2.17 IU/mL. For the same molecule, the “Intracellular HBV DNA” value ([1]; Colchicine 31.3 nM, Day 27) was 52249 copies/100 ng DNA, the “Intracellular cccDNA” value ([1]; Colchicine 31.3 nM, Day 27) was 80 copies/100 ng DNA and the “Extracellular HBeAg” value ([1]; Colchicine 31.3 nM) was 3.6 C.O.I. The “Extracellular HBV DNA” value ([1]; Colchicine 62.5 nM, Day 27) was 4.86 Log copies/mL, the “Extracellular HBsAg” value ([1]; Colchicine 62.5 nM, Day 27) was 0.12 IU/mL and the “Intracellular HBV DNA” value ([1]; Colchicine 62.5 nM, Day 27) was 9638 copies/100 ng DNA. For the same molecule, the “Intracellular cccDNA” value ([1]; Colchicine 62.5 nM, Day 27) was “+”, the “Extracellular HBeAg” value ([1]; Colchicine 62.5 nM) was 0.7 C.O.I and the “Extracellular HBV DNA” value ([1]; Colchicine 125 nM, Day 27) was 4.86 Log copies/mL. The “Extracellular HBsAg” value ([1]; Colchicine 125 nM, Day 27) was under 0.05 IU/mL, the “Intracellular HBV DNA” value ([1]; Colchicine 125 nM, Day 27) was 8341 copies/100 ng DNA and the “Intracellular cccDNA” value ([1]; Colchicine 125 nM, Day 27) was “+”. For the same molecule, the “Extracellular HBeAg” value ([1]; Colchicine 125 nM) was 0.3 C.O.I, the “Extracellular HBV DNA” value ([1]; Colchicine 250 nM, Day 27) was 4.86 Log copies/mL and the “Extracellular HBsAg” value ([1]; Colchicine 250 nM, Day 27) was under 0.05 IU/mL. The “Intracellular HBV DNA” value ([1]; Colchicine 250 nM, Day 27) was 9187 copies/100 ng DNA, the “Intracellular cccDNA” value ([1]; Colchicine 250 nM, Day 27) was “+” and the “Extracellular HBeAg” value ([1]; Colchicine 250 nM) was 0.2 C.O.I. For the same molecule, the “Extracellular HBV DNA” value ([1]; Colchicine 500 nM, Day 27) was 4.86 Log copies/mL, the “Extracellular HBsAg” value ([1]; Colchicine 500 nM, Day 27) was under 0.05 IU/mL and the “Intracellular HBV DNA” value ([1]; Colchicine 500 nM, Day 27) was 9019 copies/100 ng DNA. The “Intracellular cccDNA” value ([1]; Colchicine 500 nM, Day 27) was “+”, the “Extracellular HBeAg” value ([1]; Colchicine 500 nM) was 0.2 C.O.I and the “Extracellular HBV DNA” value ([1]; Colchicine 1000 nM, Day 27) was 4.86 Log copies/mL. For the same molecule, the “Extracellular HBsAg” value ([1]; Colchicine 1000 nM, Day 27) was under 0.05 IU/mL, the “Intracellular HBV DNA” value ([1]; Colchicine 1000 nM, Day 27) was 8717 copies/100 ng DNA and the “Intracellular cccDNA” value ([1]; Colchicine 1000 nM, Day 27) was 29 copies/100 ng DNA. The “Extracellular HBeAg” value ([1]; Colchicine 1000 nM) was 0.2 C.O.I, the anti-HBV efficacy ([1]; HBV-infected PXB-cells, Day 27) was “anti-HBV efficacy in a dose dependent manner” and the “effect in the treatment of HBV-related postnecrotic cirrhosis” value [2] was “no effect”. The mortality [3] was 100%, the “Peak blood level (Cmax)” value ([4]; high-dose (1.2 mg followed by 0.6 mg every hour for 6 h; 4.8 mg total)) was 6.84 ng/mL and the “Exposure (area under the curve)” value ([4]; high-dose (4.8 mg total)) was 118.2 ng/h/mL. For the same molecule, the terminal half-life ([4]; high-dose (4.8 mg total)) was 31.4 h, the “Peak blood level (Cmax)” value ([4]; low-dose (1.2 mg followed by 0.6 mg in 1 h; 1.8 mg total)) was 6.19 ng/mL and the “Exposure (area under the curve)” value ([4]; low-dose (1.8 mg total)) was 52.1 ng/h/mL. For the same molecule, the terminal half-life ([4]; low-dose (1.8 mg total)) was 23.6 h, the “Exposure (area under the curve)” value ([4]; single dose (0.6 mg)) was 14.1 ng/h/mL and the terminal half-life ([4]; single dose (0.6 mg)) was 6.36 h. The “mean Cmax” value ([4]; 0.6 mg single dose) was 3 ng/mL, the “mean Cmax” value ([4]; 1.0 mg single dose) was 6.50 ± 1.03 ng/mL and the Absolute bioavailability ([4]; human, in vivo) was “approximately 45%”. The liver fibrosis [5] was “decrease liver fibrosis”, the “patients failed (response rate)” value ([6]; pilot study) was 3 of 7 and the “sustained response, treated patients” value ([6]; two-center trial, 4 of 6 treated patients) was 66.6%.
